Laboratory results from paper PMC5218480 (PLoS ONE, 2017).

System: MV-4-11 cells
Assay: Gene expression microarray analysis (Affymetrix PrimeView) and GSEA
Type: cell-based, human
Set-up: RFU PODN (11730768_x_at) / Fold change /veh PODN (11730768_x_at) / RFU LINC00158 (11744669_a_at) / Fold change /veh LINC00158 (11744669_a_at) / RFU DUSP10 (11751237_a_at) / Fold change /veh DUSP10 (11751237_a_at) / RFU ID3 (11757404_x_at) / Fold change /veh ID3 (11757404_x_at) / RFU PLEKHG5 (11737974_s_at) / Fold change /veh PLEKHG5 (11737974_s_at) / RFU LRRC4B (11730491_at) / Fold change /veh LRRC4B (11730491_at) / RFU GIMAP4 (11747438_a_at) / Fold change /veh GIMAP4 (11747438_a_at) / RFU KRT8 (11758183_x_at) / Fold change /veh KRT8 (11758183_x_at) / RFU CNN1 (11734310_a_at) / Fold change /veh CNN1 (11734310_a_at) / RFU VPS37D (11726825_at) / Fold change /veh VPS37D (11726825_at) / RFU C10orf10 (11716522_x_at) / Fold change /veh C10orf10 (11716522_x_at) / RFU KIR2DL2 /// KIR2DL4 /// KIR2DL5A /// KIR2DL5B /// KIR2DS1 /// KIR2DS2 /// KIR2DS3 /// KIR2DS4 /// KIR3DL3 /// KIR3DL3 /// KIR3DS1 (11738374_at) / Fold change /veh KIR2DL2 /// KIR2DL4 /// KIR2DL5A /// KIR2DL5B /// KIR2DS1 /// KIR2DS2 /// KIR2DS3 /// KIR2DS4 /// KIR3DL3 /// KIR3DL3 /// KIR3DS1 (11738374_at) / RFU C1QL1 (11718748_at) / Fold change /veh C1QL1 (11718748_at) / RFU TMPRSS4 (11747572_a_at) / Fold change /veh TMPRSS4 (11747572_a_at) / RFU HAMP (11756126_x_at) / Fold change /veh HAMP (11756126_x_at) / RFU RNFT2 (11725882_a_at) / Fold change /veh RNFT2 (11725882_a_at) / RFU NR4A2 (11747474_a_at) / Fold change /veh NR4A2 (11747474_a_at) / RFU ABCC12 (11746883_a_at) / Fold change /veh ABCC12 (11746883_a_at) / RFU TMEM136 (11760407_x_at) / Fold change /veh TMEM136 (11760407_x_at) / RFU CLDN22 /// WWC2 (11732394_at) / Fold change /veh CLDN22 /// WWC2 (11732394_at) / RFU HLA-DPB1 (11760878_x_at) / Fold change /veh HLA-DPB1 (11760878_x_at) / RFU SPINT1 (11716480_a_at) / Fold change /veh SPINT1 (11716480_a_at) / RFU GAP43 (11754022_s_at) / Fold change /veh GAP43 (11754022_s_at) / RFU A4GNT (11735810_at) / Fold change /veh A4GNT (11735810_at) / RFU PRB3 (11715151_x_at) / Fold change /veh PRB3 (11715151_x_at) / RFU TUBB4B (11761932_at) / Fold change /veh TUBB4B (11761932_at) / RFU CAPN14 (11732068_a_at) / Fold change /veh CAPN14 (11732068_a_at) / RFU TMCC2 (11721928_a_at) / Fold change /veh TMCC2 (11721928_a_at) / RFU IRGQ (11745062_a_at) / Fold change /veh IRGQ (11745062_a_at) / RFU FAM174B (11720279_a_at) / Fold change /veh FAM174B (11720279_a_at) / RFU TMPRSS4 (11748680_a_at) / Fold change /veh TMPRSS4 (11748680_a_at) / RFU FAM212B (11763350_a_at) / Fold change /veh FAM212B (11763350_a_at) / RFU PLEKHG5 (11743358_a_at) / Fold change /veh PLEKHG5 (11743358_a_at) / RFU ZSCAN30 (11745921_a_at) / Fold change /veh ZSCAN30 (11745921_a_at) / RFU CMKLR1 (11741424_a_at) / Fold change /veh CMKLR1 (11741424_a_at) / RFU LOC101060620 /// MAPK8IP1 (11723275_at) / Fold change /veh LOC101060620 /// MAPK8IP1 (11723275_at) / RFU SPTSSB (11747773_x_at) / Fold change /veh SPTSSB (11747773_x_at) / RFU PRSS12 (11739890_at) / Fold change /veh PRSS12 (11739890_at) / RFU BIN1 (11741810_x_at) / Fold change /veh BIN1 (11741810_x_at) / RFU WNT11 (11732464_a_at) / Fold change /veh WNT11 (11732464_a_at) / RFU C10orf10 (11716521_a_at) / Fold change /veh C10orf10 (11716521_a_at) / RFU C5orf56 (11738089_at) / Fold change /veh C5orf56 (11738089_at) / RFU CYB561 (11721691_x_at) / Fold change /veh CYB561 (11721691_x_at) / RFU ANKRD19P (11752326_a_at) / Fold change /veh ANKRD19P (11752326_a_at) / RFU OR2T12 /// OR2T33 /// OR2T8 (11738714_s_at) / Fold change /veh OR2T12 /// OR2T33 /// OR2T8 (11738714_s_at) / RFU VCAN (11748164_a_at) / Fold change /veh VCAN (11748164_a_at) / RFU JSRP1 (11732532_at) / Fold change /veh JSRP1 (11732532_at) / RFU KRTAP10-11 (11738290_x_at) / Fold change /veh KRTAP10-11 (11738290_x_at) / RFU MYO3A (11730013_a_at) / Fold change /veh MYO3A (11730013_a_at) / RFU EBF3 (11725865_a_at) / Fold change /veh EBF3 (11725865_a_at) / RFU CAMK2N1 (11719241_x_at) / Fold change /veh CAMK2N1 (11719241_x_at) / RFU C5orf56 (11738088_a_at) / Fold change /veh C5orf56 (11738088_a_at) / RFU OLFML3 (11715873_a_at) / Fold change /veh OLFML3 (11715873_a_at) / RFU LOC100653217 /// NTM (11731650_a_at) / Fold change /veh LOC100653217 /// NTM (11731650_a_at) / RFU MAPK11 (11762145_a_at) / Fold change /veh MAPK11 (11762145_a_at) / RFU FIZ1 (11724087_x_at) / Fold change /veh FIZ1 (11724087_x_at) / RFU OASL (11726364_x_at) / Fold change /veh OASL (11726364_x_at) / RFU SOX15 (11748057_x_at) / Fold change /veh SOX15 (11748057_x_at) / RFU CD79A (11719716_a_at) / Fold change /veh CD79A (11719716_a_at) / RFU HIST1H1D (11736915_at) / Fold change /veh HIST1H1D (11736915_at) / RFU CASKIN2 (11723855_a_at) / Fold change /veh CASKIN2 (11723855_a_at) / RFU LOC730098 (11760151_x_at) / Fold change /veh LOC730098 (11760151_x_at) / RFU OR4N2 (11742367_at) / Fold change /veh OR4N2 (11742367_at) / RFU PRRT2 (11749266_a_at) / Fold change /veh PRRT2 (11749266_a_at) / RFU SNX32 (11753110_a_at) / Fold change /veh SNX32 (11753110_a_at) / RFU CDHR5 (11726645_a_at) / Fold change /veh CDHR5 (11726645_a_at) / RFU RCAN1 (11760418_a_at) / Fold change /veh RCAN1 (11760418_a_at) / RFU FAM167A (11723789_a_at) / Fold change /veh FAM167A (11723789_a_at) / RFU FAM26E (11764081_at) / Fold change /veh FAM26E (11764081_at) / RFU ISYNA1 (11749810_s_at) / Fold change /veh ISYNA1 (11749810_s_at) / RFU ACY1 (11761880_at) / Fold change /veh ACY1 (11761880_at) / RFU 11764098_at / Fold change /veh 11764098_at / RFU SAMD14 (11745864_x_at) / Fold change /veh SAMD14 (11745864_x_at) / RFU NPB (11741838_a_at) / Fold change /veh NPB (11741838_a_at) / RFU TMPRSS6 (11731388_a_at) / Fold change /veh TMPRSS6 (11731388_a_at) / RFU KRTAP10-2 (11738614_at) / Fold change /veh KRTAP10-2 (11738614_at) / RFU ARHGAP8 /// PRR5-ARHGAP8 (11727945_x_at) / Fold change /veh ARHGAP8 /// PRR5-ARHGAP8 (11727945_x_at) / RFU KRTAP5-7 /// NADSYN1 (11734609_at) / Fold change /veh KRTAP5-7 /// NADSYN1 (11734609_at) / RFU RASL12 (11751679_a_at) / Fold change /veh RASL12 (11751679_a_at) / RFU CDKN2B (11736163_a_at) / Fold change /veh CDKN2B (11736163_a_at) / RFU PRF1 (11729649_at) / Fold change /veh PRF1 (11729649_at) / RFU, ZNF638 /// ZNF638-IT1 / Fold change vs veh, ZNF638 /// ZNF638-IT1 / RFU, PANK3 / Fold change vs veh, PANK3 / RFU, SH3YL1 / Fold change vs veh, SH3YL1 / RFU, ZEB2 / Fold change vs veh, ZEB2 / RFU, NRIP1 / Fold change vs veh, NRIP1 / RFU, PTTG1IP / Fold change vs veh, PTTG1IP / RFU, CAPN2 / Fold change vs veh, CAPN2 / RFU, MED14 / Fold change vs veh, MED14 / RFU, SNORA58 / Fold change vs veh, SNORA58 / RFU, C1orf63 / Fold change vs veh, C1orf63 / RFU, LRRFIP1 / Fold change vs veh, LRRFIP1 / RFU, NDUFAF7 / Fold change vs veh, NDUFAF7 / RFU, SLC12A2 / Fold change vs veh, SLC12A2 / RFU, IBTK / Fold change vs veh, IBTK / RFU, ESF1 / Fold change vs veh, ESF1 / Fold change vs veh, TMEM50B / RFU, TAOK1 / Fold change vs veh, TAOK1 / RFU, ACBD3 / Fold change vs veh, ACBD3 / RFU, TMA16 / Fold change vs veh, TMA16 / RFU, RWDD3 / Fold change vs veh, RWDD3 / RFU, BCAT1 / Fold change vs veh, BCAT1 / RFU, EDEM3 / Fold change vs veh, EDEM3 / RFU, TMEM33 / Fold change vs veh, TMEM33 / RFU, WDR75 / Fold change vs veh, WDR75 / RFU, AHCTF1 / Fold change vs veh, AHCTF1 / RFU, TFRC / Fold change vs veh, TFRC / RFU, ZDHHC17 / Fold change vs veh, ZDHHC17 / RFU, NOM1 / Fold change vs veh, NOM1 / RFU, ARL8B / Fold change vs veh, ARL8B / RFU, ZBTB11 / Fold change vs veh, ZBTB11 / RFU, TAMM41 / Fold change vs veh, TAMM41 / RFU, KIAA1704 /// LOC100996395 / Fold change vs veh, KIAA1704 /// LOC100996395 / RFU, ING1 / Fold change vs veh, ING1 / RFU, TRMT61B / Fold change vs veh, TRMT61B / RFU, FUBP3 / Fold change vs veh, FUBP3 / RFU, TP53 / Fold change vs veh, TP53 / RFU, TNKS2 / Fold change vs veh, TNKS2 / RFU, ZFP14 / Fold change vs veh, ZFP14 / RFU, ACTR2 / Fold change vs veh, ACTR2 / RFU, PPP3R1 / Fold change vs veh, PPP3R1 / RFU, PIK3R1 / Fold change vs veh, PIK3R1 / RFU, HNRNPA1 / Fold change vs veh, HNRNPA1 / RFU, RNF170 / Fold change vs veh, RNF170 / RFU, ZNF28 / Fold change vs veh, ZNF28 / RFU, RNGTT / Fold change vs veh, RNGTT / RFU, OGT / Fold change vs veh, OGT / RFU, BRD1 / Fold change vs veh, BRD1 / RFU, MARS / Fold change vs veh, MARS / RFU, ZNF655 / Fold change vs veh, ZNF655 / RFU, FAHD1 / Fold change vs veh, FAHD1 / RFU, BDP1 / Fold change vs veh, BDP1 / RFU, LRRCC1 / Fold change vs veh, LRRCC1 / RFU, ARID1A / Fold change vs veh, ARID1A / RFU, ZNF146 / Fold change vs veh, ZNF146 / RFU, ZNF330 / Fold change vs veh, ZNF330 / RFU, GPN3 / Fold change vs veh, GPN3 / RFU, C9orf123 / Fold change vs veh, C9orf123 / RFU, N4BP2L2 / Fold change vs veh, N4BP2L2 / RFU, ARFIP1 / Fold change vs veh, ARFIP1 / RFU, FAM179B / Fold change vs veh, FAM179B / RFU, BCL10 / Fold change vs veh, BCL10 / RFU, UHRF1BP1L / Fold change vs veh, UHRF1BP1L / RFU, BET1 / Fold change vs veh, BET1 / RFU, CNOT2 / Fold change vs veh, CNOT2 / RFU, ZNF268 / Fold change vs veh, ZNF268 / Fold change vs veh, ZNF507 / RFU, DGCR2 / Fold change vs veh, DGCR2 / RFU, WDSUB1 / Fold change vs veh, WDSUB1 / Fold change vs veh, HSP90B1 /// MIR3652 / RFU, ADSS / Fold change vs veh, ADSS / RFU, GK / Fold change vs veh, GK / RFU, ZNF148 / Fold change vs veh, ZNF148 / RFU, TAF9 / Fold change vs veh, TAF9 / RFU, SLC1A5 / Fold change vs veh, SLC1A5 / RFU, SLMO2 / Fold change vs veh, SLMO2 / RFU, ABCC4 / Fold change vs veh, ABCC4 / RFU, LOC101060439 /// RAP1B / Fold change vs veh, LOC101060439 /// RAP1B / RFU, RFX7 / Fold change vs veh, RFX7 / RFU, GTPBP10 / Fold change vs veh, GTPBP10 / RFU, CNEP1R1 / Fold change vs veh, CNEP1R1 / RFU, BIVM-ERCC5 /// ERCC5 / Fold change vs veh, BIVM-ERCC5 /// ERCC5 / RFU, ILF3 / Fold change vs veh, ILF3 / RFU 11762660_at / Fold change /veh 11762660_at / RFU VCAN (11757783_s_at) / Fold change /veh VCAN (11757783_s_at) / RFU DDX43 (11728927_at) / Fold change /veh DDX43 (11728927_at) / RFU KRT8 (11758188_x_at) / Fold change /veh KRT8 (11758188_x_at) / RFU NKD1 (11759106_at) / Fold change /veh NKD1 (11759106_at) / RFU SRD5A1 (11742802_a_at) / Fold change /veh SRD5A1 (11742802_a_at) / RFU TPSAB1 /// TPSB2 (11721975_s_at) / Fold change /veh TPSAB1 /// TPSB2 (11721975_s_at) / RFU GSTM3 (11746129_a_at) / Fold change /veh GSTM3 (11746129_a_at) / RFU IL23R (11737362_x_at) / Fold change /veh IL23R (11737362_x_at) / RFU TMEM51 (11727254_a_at) / Fold change /veh TMEM51 (11727254_a_at) / RFU PIWIL2 (11732686_x_at) / Fold change /veh PIWIL2 (11732686_x_at) / RFU ORM1 (11744905_x_at) / Fold change /veh ORM1 (11744905_x_at) / RFU CCDC152 (11743942_at) / Fold change /veh CCDC152 (11743942_at) / RFU ECM1 (11717891_a_at) / Fold change /veh ECM1 (11717891_a_at) / RFU IL23R (11748794_a_at) / Fold change /veh IL23R (11748794_a_at) / RFU TNFAIP8L3 (11732012_x_at) / Fold change /veh TNFAIP8L3 (11732012_x_at) / RFU MBOAT4 (11741988_at) / Fold change /veh MBOAT4 (11741988_at) / RFU 11764193_at / Fold change /veh 11764193_at / RFU TMEM53 (11763286_at) / Fold change /veh TMEM53 (11763286_at) / RFU MAGEB2 (11727129_at) / Fold change /veh MAGEB2 (11727129_at) / RFU TMEM200A (11744735_a_at) / Fold change /veh TMEM200A (11744735_a_at) / RFU CCDC152 (11751479_a_at) / Fold change /veh CCDC152 (11751479_a_at) / RFU FAM211A (11726209_a_at) / Fold change /veh FAM211A (11726209_a_at) / RFU RGS16 (11746705_a_at) / Fold change /veh RGS16 (11746705_a_at) / RFU VCAN (11755009_s_at) / Fold change /veh VCAN (11755009_s_at) / RFU RHOB (11743442_s_at) / Fold change /veh RHOB (11743442_s_at) / RFU RGS16 (11720943_a_at) / Fold change /veh RGS16 (11720943_a_at) / RFU RGS16 (11720944_at) / Fold change /veh RGS16 (11720944_at) / RFU, VPS4B / Fold change vs veh, VPS4B / RFU, CREB1 / Fold change vs veh, CREB1 / RFU, DNAJC13 / Fold change vs veh, DNAJC13 / RFU, GNAQ / Fold change vs veh, GNAQ / RFU, CDK5R1 / Fold change vs veh, CDK5R1 / RFU, ZRANB3 / Fold change vs veh, ZRANB3 / RFU, CUL4A / Fold change vs veh, CUL4A / RFU, CCNY / Fold change vs veh, CCNY / RFU, UFL1 / Fold change vs veh, UFL1 / RFU, COG3 / Fold change vs veh, COG3 / RFU, DIAPH2 / Fold change vs veh, DIAPH2 / RFU, SKA2 / Fold change vs veh, SKA2 / RFU, AFF3 / Fold change vs veh, AFF3 / RFU, LMF1 / Fold change vs veh, LMF1 / RFU, IPO11 / Fold change vs veh, IPO11 / RFU, DFFB / Fold change vs veh, DFFB / RFU, FOXP1 / Fold change vs veh, FOXP1 / RFU, CARD8 / Fold change vs veh, CARD8 / RFU, STRN3 / Fold change vs veh, STRN3 / RFU, ADK / Fold change vs veh, ADK / RFU, RASSF2 / Fold change vs veh, RASSF2 / RFU, WIPF1 / Fold change vs veh, WIPF1 / RFU, LARP1B / Fold change vs veh, LARP1B / RFU, RASA1 / Fold change vs veh, RASA1 / RFU, RB1 / Fold change vs veh, RB1 / RFU, PPFIA1 / Fold change vs veh, PPFIA1 / RFU, MAT2A / Fold change vs veh, MAT2A / RFU, CCT5 / Fold change vs veh, CCT5 / RFU, WDR92 / Fold change vs veh, WDR92 / RFU, CUX1 / Fold change vs veh, CUX1 / RFU, TTC7A / Fold change vs veh, TTC7A / RFU, TMEM135 / Fold change vs veh, TMEM135 / RFU, DEPTOR / Fold change vs veh, DEPTOR / RFU, CPM / Fold change vs veh, CPM / RFU, DNAJB6 / Fold change vs veh, DNAJB6 / RFU, CACNA2D3 / Fold change vs veh, CACNA2D3 / RFU, DTX4 / Fold change vs veh, DTX4 / RFU, TFCP2 / Fold change vs veh, TFCP2 / RFU, GMCL1 /// GMCL1P1 / Fold change vs veh, GMCL1 /// GMCL1P1 / RFU, AEBP2 / Fold change vs veh, AEBP2 / RFU, SNHG1 /// SNORD22 /// SNORD25 /// SNORD26 /// SNORD27 /// SNORD28 /// SNORD29 /// SNORD31 / Fold change vs veh, SNHG1 /// SNORD22 /// SNORD25 /// SNORD26 /// SNORD27 /// SNORD28 /// SNORD29 /// SNORD31 / Fold change (Aza/veh), C12orf56 (ProbeSet 11735607_a_at) / Fold change (ACY-1035/veh), C12orf56 (ProbeSet 11735607_a_at) / Fold change (Aza/veh), FGFR1OP (ProbeSet 11751329_s_at) / Fold change (ACY-1035/veh), FGFR1OP (ProbeSet 11751329_s_at) / Fold change (Aza/veh), VPS36 (ProbeSet 11739960_a_at) / Fold change (ACY-1035/veh), VPS36 (ProbeSet 11739960_a_at) / RFU SYPL1 (11715823_x_at) / Fold change /veh SYPL1 (11715823_x_at) / RFU IGFBP7 (11715501_s_at) / Fold change /veh IGFBP7 (11715501_s_at) / RFU REEP3 (11722064_at) / Fold change /veh REEP3 (11722064_at) / RFU IGLL1 (11728026_x_at) / Fold change /veh IGLL1 (11728026_x_at): dose or concentration left out as unconfirmed
Conditions: MV-4-11 cells, 48 hours

Nc1ccc(-c2cccs2)cc1NC(=O)c1ccc2c(c1)cc(C1CC1)n2CCN1CCOCC1 [ACY-1035]
RFU RNFT2 (11725882_a_at): 13.97 RFU
